As a reminder, the IC50 is the midpoint of a concentration-inhibition curve.

The test system of assay [1] is Amyloid-β peptide release (AβTotal), HEK cells overexpressing APP (HEK-APP). Briefly: Amyloid-β peptide release (AβTotal) assay, AlphaLISA on supernatant of HEK-APP cells. The assay is classed as cell-based. The note with it: ratio Abtot vs Ab42, HEK-APP cells, 24 h. (In Alpha technology, singlet oxygen from a donor bead excites a nearby acceptor bead.)
Assay [2] deals with Amyloid-β peptide release (Aβ42), HEK cells overexpressing APP (HEK-APP). Briefly: Amyloid-β peptide release (Aβ42) assay, AlphaLISA on supernatant of HEK-APP cells. The assay is classed as cell-based. The note with it: Homo sapiens, HEK293, 24 h incubation with compound, read-out: Ab42 IC50 Ranges. The method in brief:
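HEK-APP cells treated with compounds for 24 h at 37 °C, 5% CO2. Supernatant Aβ42 or total Aβ measured by AlphaLISA after 4.5 h with antibody beads (6E10 acceptor beads for total). IC50 values derived.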

As to `Cc1ncc2sc(C(=O)N(C)Cc3cccc(Cl)c3)nn12` [Example 95, 5-Methyl-imidazo[5,1-b][1,3,4]thiadiazole-2-carboxylic acid (3-chloro-benzyl)-methyl-amide], in assay [1], the Abtot/Ab42 selectivity ranges result is given as “d (d: 10 fold > selectivity)”. For the same compound, in assay [2], the IC50 lay within 500 to 1000 nM.

As to `Cc1ncc2oc(-c3ccc(NC(=O)Cc4ccc(C(C)(C)C)cc4)cc3)nn12` [Example 57, 2-(4-tert-Butyl-phenyl)-N-[4-(5-methyl-imidazo[5,1-b][1,2,4]oxadiazol-2-yl)-phenyl]-acetamide], the Abtot/Ab42 selectivity ranges result in assay [1] is on record as “b (b: 100 fold > selectivity ≥ 50 fold)”. Further, the IC50 in assay [2] was in the range of 500 to 1000 nM.

In the case of `Cc1ncc2oc(-c3ccc(NCc4ccc(Cl)c(Cl)c4)cn3)nn12` [Example 28], the Abtot/Ab42 selectivity ranges entry in assay [1] is on record as “d (d: 10 fold > selectivity)”. Besides, the IC50 in assay [2] was in the range of 100 to 500 nM.

Turning to `Cc1ncc2sc(C(=O)N3CCCCC3c3cccc(C(F)(F)F)c3)nn12` (stereo not shown) [Example 116, (5-Methyl-imidazo[5,1-b][1,3,4]thiadiazol-2-yl)-[2-(3-trifluoromethyl-phenyl)-piperidin-1-yl]-methanone], the Abtot/Ab42 selectivity ranges result in assay [1] is on record as “d (d: 10 fold > selectivity)”. In assay [2], the IC50 is 1000 to 2200 nM.

As to `Cc1ncc2oc(-c3ccc(NC(=O)Cc4ccc(Cl)cc4Cl)cc3)nn12` [Example 62, 2-(2,4-dichlorophenyl)-N-(4-(5-methylimidazo[5,1-b][1,3,4]oxadiazol-2-yl)phenyl)acetamide], in assay [1], the Abtot/Ab42 selectivity ranges entry is reported as “b (b: 100 fold > selectivity ≥ 50 fold)”. The IC50 in assay [2] was 500 to 1000 nM.

For `COc1cc(C(=O)NCc2ccc(Cl)c(Cl)c2)ccc1-c1nn2c(C)ncc2o1` [Example 19, N-(3,4-Dichloro-benzyl)-3-methoxy-4-(5-methyl-imidazo[5,1-b][1,2,4]oxadiazol-2-yl)-benzamide], in assay [1], the Abtot/Ab42 selectivity ranges result is “c (c: 50 fold > selectivity ≥ 10 fold)”. Also, the IC50 in assay [2] is 1000 to 2200 nM.

In the case of `Cc1ncc2oc(-c3ccc(NC(=O)Cc4cc(F)cc(F)c4F)cc3)nn12` [Example 61, N-(4-(5-methylimidazo[5,1-b][1,3,4]oxadiazol-2-yl)phenyl)-2-(2,3,5-trifluorophenyl)acetamide], the Abtot/Ab42 selectivity ranges entry in assay [1] was “b (b: 100 fold > selectivity ≥ 50 fold)”. The IC50 in assay [2] was in the range of 500 to 1000 nM.

Turning to `COc1cc(C(=O)NCc2cccc3ccccc23)ccc1-c1nn2c(C)ncc2o1` [Example 20, 3-Methoxy-4-(5-methyl-imidazo[5,1-b][1,2,4]oxadiazol-2-yl)-N-naphthalen-1-ylmethyl-benzamide], in assay [1], the Abtot/Ab42 selectivity ranges result is reported as “c (c: 50 fold > selectivity ≥ 10 fold)”. Besides, in assay [2], the concentration for half-maximal inhibition (IC50) fell in the range of 1000 to 2200 nM.

With `Cc1ncc2oc(-c3ccc(NC(=O)Cc4ccc(OC(F)(F)F)cc4)cc3)nn12` [Example 6, N-[4-(5-Methyl-imidazo[5,1-b][1,2,4]oxadiazol-2-yl)-phenyl]-2-(4-trifluoromethoxy-phenyl)-acetamide], in assay [1], the Abtot/Ab42 selectivity ranges entry was “c (c: 50 fold > selectivity ≥ 10 fold)”. In assay [2], the IC50 was in the range of 500 to 1000 nM.

Regarding `Cc1ncc2sc(C(=O)NCCc3c[nH]c4ccccc34)nn12` [Example 94, 5-Methyl-imidazo[5,1-b][1,3,4]thiadiazole-2-carboxylic acid [2-(1H-indol-3-yl)-ethyl]-amide], the Abtot/Ab42 selectivity ranges result in assay [1] was “d (d: 10 fold > selectivity)”. Moreover, the 50% inhibitory concentration (IC50) in assay [2] fell in the range of 500 to 1000 nM.

With `CCOc1ccccc1CNC(=O)c1nn2c(C)ncc2s1` [Example 96, 5-Methyl-imidazo[5,1-b][1,3,4]thiadiazole-2-carboxylic acid 2-ethoxy-benzylamide], the Abtot/Ab42 selectivity ranges result in assay [1] is reported as “d (d: 10 fold > selectivity)”. Further, in assay [2], the 50% inhibitory concentration (IC50) lay in the range of 500 to 1000 nM.

In the case of `Cc1ccc(C)c(CC(=O)Nc2ccc(-c3nn4c(C)ncc4o3)cc2C)c1` [Example 38], in assay [1], the Abtot/Ab42 selectivity ranges entry was “a (a: selectivity ≥ 100 fold)”. Also, in assay [2], the IC50 lay in the range of 100 to 500 nM.

As to `Cc1ncc2oc(-c3ccc(NC(=O)Cc4ccc(-c5ccccc5)cc4)cc3)nn12` [Example 56, 2-Biphenyl-4-yl-N-[4-(5-methyl-imidazo[5,1-b][1,2,4]oxadiazol-2-yl)-phenyl]-acetamide], the Abtot/Ab42 selectivity ranges entry in assay [1] is listed as “a (a: selectivity ≥ 100 fold)”. The IC50 in assay [2] fell in the range of 100 to 500 nM.

For the compound `Cc1ccccc1CC(=O)Nc1ccc(-c2nn3c(C)ncc3o2)cc1` [Example 60, N-[4-(5-Methyl-imidazo[5,1-b][1,2,4]oxadiazol-2-yl)-phenyl]-2-o-tolyl-acetamide], in assay [1], the Abtot/Ab42 selectivity ranges entry is on record as “c (c: 50 fold > selectivity ≥ 10 fold)”. The IC50 in assay [2] lay within 1000 to 2200 nM.

With `Cc1ncc2sc(C(=O)N(Cc3ccccc3)CC(C)C)nn12` [Example 89, 5-Methyl-imidazo[5,1-b][1,3,4]thiadiazole-2-carboxylic acid benzyl-isobutyl-amide], in assay [1], the Abtot/Ab42 selectivity ranges result is recorded as “d (d: 10 fold > selectivity)”. In assay [2], the IC50 was 100 to 500 nM.

In the case of `COc1ccccc1CC(=O)Nc1ccc(-c2nn3c(C)ncc3o2)cc1` [Example 53, 2-(2-Methoxy-phenyl)-N-[4-(5-methyl-imidazo[5,1-b][1,2,4]oxadiazol-2-yl)-phenyl]-acetamide], the Abtot/Ab42 selectivity ranges entry in assay [1] was “d (d: 10 fold > selectivity)”. Further, the IC50 in assay [2] was 1000 to 2200 nM.

With `COc1cc(NC(=O)Cc2cccc3ccccc23)ccc1-c1nn2c(C)ncc2s1` [Example 125, N-[3-Methoxy-4-(5-methyl-imidazo[5,1-b][1,3,4]thiadiazol-2-yl)-phenyl]-2-naphthalen-1-yl-acetamide], in assay [1], the Abtot/Ab42 selectivity ranges entry is “c (c: 50 fold > selectivity ≥ 10 fold)”. The IC50 in assay [2] lay in the range of 100 to 500 nM.

Regarding `Cc1ncc2oc(-c3ccc(NC(=O)c4ccc(F)c(OC(F)(F)F)c4)cn3)nn12` [Example 16, 4-Fluoro-N-[6-(5-methyl-imidazo[5,1-b][1,2,4]oxadiazol-2-yl)-pyridin-3-yl]-3-trifluoromethoxy-benzamide], the Abtot/Ab42 selectivity ranges result in assay [1] was “d (d: 10 fold > selectivity)”. For the same compound, the IC50 in assay [2] was 1000 to 2200 nM.

In the case of `COc1cc(NC(=O)Cc2c(Cl)cc(C(F)(F)F)cc2Cl)ccc1-c1nn2c(C)ncc2o1` [Example 32, 2-(2,6-dichloro-4-(trifluoromethyl)phenyl)-N-(3-methoxy-4-(5-methylimidazo[5,1-b][1,3,4]oxadiazol-2-yl)phenyl) acetamide], the Abtot/Ab42 selectivity ranges entry in assay [1] is recorded as “a (a: selectivity ≥ 100 fold)”. For the same compound, in assay [2], the IC50 is 100 to 500 nM.

`Cc1ncc2sc(C(=O)N3CCC[C@H]3c3ccc(Br)cc3)nn12` [Example 114, (S)-(2-(4-bromophenyl)pyrrolidin-1-yl) (5-methylimidazo[5,1-b][1,3,4]thiadiazol-2-yl)methanone]: the Abtot/Ab42 selectivity ranges result in assay [1] is listed as “d (d: 10 fold > selectivity)”. Moreover, in assay [2], the 50% inhibitory concentration (IC50) lay in the range of 1000 to 2200 nM.

For `Cc1ncc2oc(-c3ccc(NC(=O)Cc4cccc(OCc5ccccc5)c4)cc3)nn12` [Example 70, 2-(3-(benzyloxy)phenyl)-N-(4-(5-methylimidazo[5,1-b][1,3,4]oxadiazol-2-yl)phenyl)acetamide], in assay [1], the Abtot/Ab42 selectivity ranges entry is reported as “c (c: 50 fold > selectivity ≥ 10 fold)”. For the same compound, the IC50 in assay [2] fell in the range of 1000 to 2200 nM.

Consider `Cc1ncc2oc(-c3ccc(NC(=O)Cc4cccc(Cl)c4)cc3)nn12` [Example 63, 2-(3-chlorophenyl)-N-(4-(5-methylimidazo[5,1-b][1,3,4]oxadiazol-2-yl)phenyl)acetamide], for which, in assay [1], the Abtot/Ab42 selectivity ranges result was “b (b: 100 fold > selectivity ≥ 50 fold)”. The IC50 in assay [2] was in the range of 500 to 1000 nM.

With `COc1cc(NC(=O)Cc2cc(C)ccc2C)ccc1-c1nn2c(C)ncc2s1` [Example 126, 2-(2,5-Dimethyl-phenyl)-N-[3-methoxy-4-(5-methyl-imidazo[5,1-b][1,3,4]thiadiazol-2-yl)-phenyl]-acetamide], the Abtot/Ab42 selectivity ranges result in assay [1] was “d (d: 10 fold > selectivity)”. For the same compound, the IC50 in assay [2] is 500 to 1000 nM.

Take `Cc1ncc2oc(-c3ccc(NC(=O)Cc4ccccc4OC(F)(F)F)cn3)nn12` [Example 81, N-[6-(5-Methyl-imidazo[5,1-b][1,2,4]oxadiazol-2-yl)-pyridin-3-yl]-2-(2-trifluoromethoxy-phenyl)-acetamide]: in assay [1], the Abtot/Ab42 selectivity ranges entry was “c (c: 50 fold > selectivity ≥ 10 fold)”. In addition, the concentration for half-maximal inhibition (IC50) in assay [2] is 1000 to 2200 nM.

For the compound `Cc1ncc2oc(-c3ccc(Nc4nc5n(n4)CCCC5c4ccc(Cl)cc4Cl)cc3)nn12` (stereo not shown) [Example 25, [8-(2,4-Dichloro-phenyl)-5,6,7,8-tetrahydro-[1,2,4]triazolo[1,5-a]pyridin-2-yl]-[4-(5-methyl-imidazo[5,1-b][1,2,4]oxadiazol-2-yl)-phenyl]-amine], the Abtot/Ab42 selectivity ranges result in assay [1] is reported as “c (c: 50 fold > selectivity ≥ 10 fold)”. For the same compound, the IC50 in assay [2] was in the range of 500 to 1000 nM.

Turning to `Cc1ncc2sc(C(=O)N3CCCC3c3ccc(C(F)(F)F)cc3)nn12` (stereo not shown) [Example 112, (5-Methyl-imidazo[5,1-b][1,3,4]thiadiazol-2-yl)-[2-(4-trifluoromethyl-phenyl)-pyrrolidin-1-yl]-methanone], the Abtot/Ab42 selectivity ranges entry in assay [1] was “d (d: 10 fold > selectivity)”. Further, the half-inhibitory concentration (IC50) in assay [2] was in the range of 100 to 500 nM.

Take `Cc1ncc2oc(-c3ccc(Nc4nc5n(n4)CCCC5c4ccc(F)cc4)cc3)nn12` (stereo not shown) [Example 24, 8-(4-fluorophenyl)-N-(4-(5-methylimidazo[5,1-b][1,3,4]oxadiazol-2-yl)phenyl)-5,6,7,8-tetrahydro-[1,2,4]triazolo[1,5-a]pyridin-2-amine]: the Abtot/Ab42 selectivity ranges result in assay [1] is listed as “c (c: 50 fold > selectivity ≥ 10 fold)”. In assay [2], the concentration for half-maximal inhibition (IC50) fell in the range of 500 to 1000 nM.

As to `Cc1ncc2oc(-c3ccc(NC(=O)Cc4ccc(Cl)c(Cl)c4)cc3)nn12` [Example 77, 2-(3,4-dichlorophenyl)-N-(4-(5-methylimidazo[5,1-b][1,3,4]oxadiazol-2-yl)phenyl)acetamide], the Abtot/Ab42 selectivity ranges result in assay [1] was “a (a: selectivity ≥ 100 fold)”. The IC50 in assay [2] fell in the range of 100 to 500 nM.

With `Cc1ncc2sc(C(=O)N3CCCC3c3ccc(Br)cc3)nn12` (stereo not shown) [Example 110, [2-(4-Bromo-phenyl)-pyrrolidin-1-yl]-(5-methyl-imidazo[5,1-b][1,3,4]thiadiazol-2-yl)-methanone], the Abtot/Ab42 selectivity ranges result in assay [1] is “d (d: 10 fold > selectivity)”. Besides, the IC50 in assay [2] is less than 100 nM.

(Values after patent publication US9932354B2, “Imidazo-oxadiazole and imidazo-thiadiazole derivatives” (Ares Trading S.A., priority 2012, dated 2018).)
